Test results from patent publication US7772241B2, “Variolin derivatives and their use as antitumor agents” (Pharma Mar S.A., priority 2001, dated 2010).
Where two headings read alike, the source gives them in different places.

Legend:
[1] = tested on: LoVo; assay: Inhibition of cells growth by colorimetric (SRB) assay, LoVo; settings: for GI50: read-out: GI50 LOVO, SRB assay, 48 hours exposure
Description: (§1) The finality of these assays is to interrupt the growth of a “in vitro” tumor cell culture by means a continued exhibition of the cells to the sample to be testing.
(§2) This form of the assay employs 96 well cell culture microplates of 9 mm diameter (Faircloth, 1988; Mosmann, 1983). Most of the cell lines are obtained from American Type Culture Collection (ATCC) derived from different human cancer types.
(§3) Cells are maintained in RPMI 1640 10% FBS, supplemented with 0.1 g/l penicillin and 0.1 g/l streptomycin sulphate and then incubated at 37° C., 5% CO2 and 98% humidity. For the experiments, cells were harvested from subconfluent cultures using trypsin and resuspended in fresh medium before plating.
(§4) Cells are seeded in 96 well microtiter plates, at 5×10^3 cells per well in aliquots of 195 μl medium, and they are allowed to attach to the plate surface by growing in drug free medium for 18 hours. Afterward, samples are added in aliquots of 5 μl in a ranging from 10 to 10^−8 μg/ml, dissolved in DMSO/EtOH/PBS (0.5:0.5:99). After 48 hours exposure, the antitumor effect are measured by the SRB methodology: cells are fixed by adding 50 μl of cold 50% (wt/vol) trichloroacetic acid (TCA) and incubating for 60 minutes at 4° C. Plates are washed with deionized water and dried. One hundred μl of SRB solution (0.4% wt/vol in 1% acetic acid) is added to each microtiter well and incubated for 10 minutes at room temperature. Unbound SRB is removed by washing with 1% acetic acid. Plates are air dried and bound stain is solubilized with Tris buffer. Optical densities are read on a automated spectrophotometric plate reader at a single wavelength of 490 nm.
(§5) The values for mean +/−SD of data from triplicate wells are calculated. Some parameters for cellular responses can be calculated: GI=growth inhibition, TGI=total growth inhibition (cytostatic effect) and LC=cell killing (cytotoxic effect).

[2] = tested on: LoVo-Dox; assay: Inhibition of cells growth by colorimetric (SRB) assay, LoVo-Dox; settings: for GI50 / CC50: Homo sapiens, 48 h; for GI50: read-out: GI50 LOVO-DOX, SRB assay, 48 hours exposure; for CC50: read-out: LC50 LOVO-DOX, SRB assay, 48 hours exposure; for TGI LOVO-DOX: SRB assay, 48 hours exposure
Description: as §1, §2, §3, §4, §5

[3] = tested on: PANC-1; assay: Inhibition of cells growth by colorimetric (SRB) assay, PANC-1; settings: for GI50 / CC50: Homo sapiens, PANC-1, 48 h; for GI50: read-out: GI50 PANC-1, SRB assay, 48 hours exposure; for CC50: read-out: LC50 PANC-1, SRB assay, 48 hours exposure; for TGI PANC-1: SRB assay, 48 hours exposure
Description: as §1, §2, §3, §4, §5

[4] = tested on: IGROV-ET; assay: Inhibition of cells growth by colorimetric (SRB) assay, IGROV-ET; settings: for GI50 / CC50: Homo sapiens, 48 h; for GI50: read-out: GI50 IGROV-ET, SRB assay, 48 hours exposure; for CC50: read-out: LC50 IGROV-ET, SRB assay, 48 hours exposure; for TGI IGROV-ET: SRB assay, 48 hours exposure
Description: as §1, §2, §3, §4, §5

[5] = tested on: IGROV-1; assay: Inhibition of cells growth by colorimetric (SRB) assay, IGROV-1; settings: for GI50: read-out: GI50 IGROV, SRB assay, 48 hours exposure
Description: as §1, §2, §3, §4, §5

[6] = tested on: K-562; assay: Inhibition of cells growth by colorimetric (SRB) assay, K-562; settings: for GI50 / CC50: Homo sapiens, K562, 48 h; for GI50: read-out: GI50 K-562, SRB assay, 48 hours exposure; for CC50: read-out: LC50 K-562, SRB assay, 48 hours exposure; for TGI K-562: SRB assay, 48 hours exposure
Description: as §1, §2, §3, §4, §5

[7] = tested on: SK-OV-3; assay: Inhibition of cells growth by colorimetric (SRB) assay, SK-OV-3; settings: for GI50 / CC50: Homo sapiens, SK-OV-3, 48 h; for GI50: read-out: GI50 SKOV-3, SRB assay, 48 hours exposure; for CC50: read-out: LC50 SKOV-3, SRB assay, 48 hours exposure; for TGI SKOV-3: SRB assay, 48 hours exposure
Description: as §1, §2, §3, §4, §5

[8] = tested on: A-549; assay: Inhibition of cells growth by colorimetric (SRB) assay, A-549; settings: for GI50 / CC50: Homo sapiens, A549, 48 h; for GI50: read-out: GI50 A-549, SRB assay, 48 hours exposure; for CC50: read-out: LC50 A-549, SRB assay, 48 hours exposure; for TGI A-549: SRB assay, 48 hours exposure
Description: as §1, §2, §3, §4, §5

[9] = tested on: DU-145; assay: Inhibition of cells growth by colorimetric (SRB) assay, DU-145; settings: for GI50: read-out: GI50 DU-145, SRB assay, 48 hours exposure
Description: as §1, §2, §3, §4, §5

[10] = tested on: HT-29; assay: Inhibition of cells growth by colorimetric (SRB) assay, HT-29; settings: for GI50: read-out: GI50 HT-29, SRB assay, 48 hours exposure; for TGI HT-29: SRB assay, 48 hours exposure
Description: as §1, §2, §3, §4, §5

[11] = tested on: SK-BR-3; assay: Inhibition of cells growth by colorimetric (SRB) assay, SK-BR-3; settings: for GI50 / CC50: Homo sapiens, SK-BR-3, 48 h; for GI50: read-out: GI50 SK-BR-3, SRB assay, 48 hours exposure; for CC50: read-out: LC50 SK-BR-3, SRB assay, 48 hours exposure; for TGI SK-BR-3: SRB assay, 48 hours exposure
Description: as §1, §2, §3, §4, §5

[12] = tested on: SK-MEL-28; assay: Inhibition of cells growth by colorimetric (SRB) assay, SK-MEL-28
Description: as §1, §2, §3, §4, §5

Nc1nccc2c(-c3ccnc(Oc4ccccc4)n3)c3cccnc3n12 [Compound 78]
GI50 ([1]; Homo sapiens, LoVo, 48 h): 553 nM
CC50 ([1]; Homo sapiens, LoVo, 48 h, read-out: LC50 LOVO, SRB assay, 48 hours exposure): 5050 nM
TGI LOVO ([1]; SRB assay, 48 hours exposure): 1.44E−06
GI50 [2]: 151 nM
CC50 [2]: 18200 nM
TGI LOVO-DOX [2]: 1.86E−06
GI50 [3]: 1340 nM
CC50 [3]: 28200 nM
TGI PANC-1 [3]: 1.08E−05
GI50 [4]: 1080 nM
CC50 [4]: 14300 nM
TGI IGROV-ET [4]: 2.47E−06
GI50 ([5]; Homo sapiens, IGROV-1, 48 h): 621 nM
CC50 ([5]; Homo sapiens, IGROV-1, 48 h, read-out: LC50 IGROV, SRB assay, 48 hours exposure): 4740 nM
TGI IGROV ([5]; SRB assay, 48 hours exposure): 1.41E−06
GI50 [6]: 5500 nM
CC50 [6]: 28200 nM
TGI K-562 [6]: 2.30E−05
GI50 [7]: 784 nM
CC50 [7]: 28200 nM
TGI SKOV-3 [7]: 1.87E−06
GI50 [8]: 737 nM
CC50 [8]: 8010 nM
TGI A-549 [8]: 1.68E−06
GI50 ([9]; Homo sapiens, DU-145, 48 h): 770 nM
CC50 ([9]; Homo sapiens, DU-145, 48 h, read-out: LC50 DU-145, SRB assay, 48 hours exposure): 28200 nM
TGI DU-145 ([9]; SRB assay, 48 hours exposure): 1.87E−06
GI50 ([10]; Homo sapiens, HT-29, 48 h): 1340 nM
TGI HT-29 [10]: 2.82E−05
GI50 [11]: 528 nM
CC50 [11]: 2490 nM
TGI SK-BR-3 [11]: 1.15E−06
GI50 ([12]; Homo sapiens, SK-MEL-28, 48 h, read-out: GI50 MEL-28, SRB assay, 48 hours exposure): 717 nM
CC50 ([12]; Homo sapiens, SK-MEL-28, 48 h, read-out: LC50 MEL-28, SRB assay, 48 hours exposure): 7050 nM
TGI MEL-28 ([12]; SRB assay, 48 hours exposure): 1.78E−06

Nc1nccc(-c2c3c(N)ccnc3n3c(N)nccc23)n1 [Compound 90]
GI50 ([1]; Homo sapiens, LoVo, 48 h): 276 nM
TGI LOVO ([1]; SRB assay, 48 hours exposure): 6.54E−07
CC50 ([1]; read-out: LC50 LOVO, SRB assay, 48 hours exposure): 1560 nM
GI50 [2]: 597 nM
CC50 [2]: 8070 nM
TGI LOVO-DOX [2]: 1.27E−06
GI50 [3]: 1180 nM
CC50 [3]: 15800 nM
TGI PANC-1 [3]: 4.98E−06
GI50 [4]: 1920 nM
CC50 [4]: 15800 nM
TGI IGROV-ET [4]: 6.95E−06
GI50 ([5]; Homo sapiens, IGROV-1, 48 h): 339 nM
TGI IGROV ([5]; SRB assay, 48 hours exposure): 6.92E−07
CC50 ([5]; read-out: LC50 IGROV, SRB assay, 48 hours exposure): 1410 nM
GI50 [6]: 1230 nM
CC50 [6]: 15800 nM
TGI K-562 [6]: 5.28E−06
GI50 [7]: 465 nM
CC50 [7]: 13900 nM
TGI SKOV-3 [7]: 1.15E−06
GI50 [8]: 887 nM
CC50 [8]: 7050 nM
TGI A-549 [8]: 2.05E−06
GI50 ([9]; Homo sapiens, DU-145, 48 h): 355 nM
TGI DU-145 ([9]; SRB assay, 48 hours exposure): 1.03E−06
CC50 ([9]; read-out: LC50 DU-145, SRB assay, 48 hours exposure): 10700 nM
GI50 ([10]; Homo sapiens, HT-29, 48 h): 1270 nM
CC50 ([10]; Homo sapiens, HT-29, 48 h, read-out: LC50 HT-29, SRB assay, 48 hours exposure): 15800 nM
TGI HT-29 [10]: 1.44E−05
GI50 [11]: 311 nM
CC50 [11]: 1420 nM
TGI SK-BR-3 [11]: 6.64E−07
TGI MEL-28 ([12]; SRB assay, 48 hours exposure): 9.68E−07
GI50 ([12]; read-out: GI50 MEL-28, SRB assay, 48 hours exposure): 397 nM
CC50 ([12]; read-out: LC50 MEL-28, SRB assay, 48 hours exposure): 3450 nM
